The test system of series [1] is capillary beds of young chick embryos. Kind of series: Capillary regression in chick embryo capillary beds. The format is in vivo. The conditions noted are these: one time dose 100 ng. Here is the method:
A one time dose (100 ng) of squalamine was applied to capillary beds of young chick embryos that were 2-3 days old. After five minutes, this dose of squalamine appeared to have little effect on the capillary beds.
The capillary bed also was observed after sixty minutes. At this time, it was noted that some of the capillary vessels were beginning to re-appear, but only the more major vessels were re-appearing. The small vessels were not re-appearing at that time. Four to five days after the one time squalamine treatment, the effect of the squalamine dose was no longer apparent, but newly formed capillaries in the embryos remained susceptible to squalamine induced regression for a limited time while they were newly formed.
From this test, applicants concluded that squalamine-induced capillary regression is reversible, at least with respect to certain capillaries.

In series [2] the test system is 9L and C6 rat glioma cells, human H80 glioma cells, VX2 rabbit carcinoma cells. Kind of series: Proliferation of tumor cell lines. The format is cell-based. Here is the method:
In conducting this in vitro analysis, the following cell lines were tested: (a) bovine retinal endothelial cells; (b) 9L and C6 rat glioma cells; (c) human H80 glioma cells; and (d) VX2 rabbit carcinoma cells (the same type as the tumors implanted in the rabbit corneal micropocket assay test described above). The endothelial mitogen which was used in this analysis was VEGF at a concentration of 20 ng/ml.
The cells were allowed to attach overnight to tissue culture plates containing an optimized growth media. Following attachment, the cells were exposed to solvent only or 5 to increasing concentrations of squalamine (0, 10, 20, 30, 60, and 90 μg squalamine/ml). Cell growth was counted daily for three days using a Coulter Counter. A total of 10,000 cells per well were plated and each experimental concentration was tested in quadruplicate. The results were then averaged. The bovine retinal endothelial cells were grown and treated in an identical manner to the other cell lines, except that the growth of these cells was measured after the addition of 20 ng/ml of human recombinant VEGF to the cells prior to the squalamine treatment.
Percentage endothelial cell growth inhibition (%I) was determined by the following equation: [formula]

Series [3] in a line: Tissue distribution after i.v. administration. It is filed as in vivo, mouse. As to conditions: two hours after i.v. administration. An excerpt: In addition to these squalamine half-life tests, applicants have tested to ascertain the distribution of squalamine in a mouse after intravenous administration. FIG. 7 illustrates the distribution of squalamine in mouse tissue two hours after i.v. administration. […] The test results shown in FIG. 7 indicate good squalamine distribution. […] In treating brain tumors, it is believed that the squalamine acts on the endothelial cells in the brain, and in this way, it need not cross the brain/blood barrier

Take `CC(C)[C@@H](CC[C@@H](C)[C@H]1CC[C@H]2[C@@H]3[C@H](O)C[C@H]4C[C@@H](NCCCNCCCCN)CC[C@]4(C)[C@H]3CC[C@]12C)OS(=O)(=O)O` [Squalamine, squalamine]: the “effect on capillary beds” value in series [1] (after five minutes) is reported as “little effect”; in series [1] (after forty minutes), “additional capillary regression was observed”; in series [1] (in twenty minutes), “the capillary bed appeared to be disappearing”. Besides, in series [2] (30 μg/ml, 1, 2 and 3 days (FIG. 9)), the “growth of H80, C6 and VX2 cell lines as percentage of control” value is reported as “not dramatically affected”. Further, the “cell proliferation by all tumor lines” value in series [2] (24 and 48 hours, up to 30 μg/ml) is “statistically unaffected”. Moreover, the “distribution in mouse tissue” value in series [3] is “most of the squalamine concentrating in the liver and the small intestine”. Besides, the “squalamine in brain tissue” value in series [3] was “not much squalamine is present in brain tissue”.

The values above are taken from patent publication US6596712B2, “Treatment of carcinomas using squalamine in combination with other anti-cancer agents or modalities” (Genaera Corporation, priority 1996, dated 2003).
